In PubChem BioAssay AID256 (DTP/NCI, 2004):
Where “and” joins values, the source holds several entries; their conditions need not be identical. Equal entries are not always repeated. Inconclusive results and toxic doses are left out. How the source made its calls: active means survival T/C of 150% or more; inactive means T/C below 125% in these data.

Tested on: CD2F1 mice, L1210 leukemia ip, survival T/C
Test: NCI In Vivo Anticancer Drug Screen. Data for tumor model L1210 Leukemia (intraperitoneal) in CD2F1 (CDF1) mice
Conditions: higher = longer survival
How it was run: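 Activity against a transplanted murine tumor was judged by comparing the compound group with a vehicle group. The outcome in the treated animals was divided by that in the controls.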

[1] = endpoint: mean survival time, dose: 25.0 mg/kg/injection, schedule: Q01DX005 (ip), vehicle: water
[2] = endpoint: mean survival time, dose: 50.0 mg/kg/injection, schedule: Q01DX005 (ip), vehicle: water
[3] = endpoint: mean survival time, dose: 100.0 mg/kg/injection, schedule: Q01DX005 (ip), vehicle: water
[4] = endpoint: mean survival time, dose: 100.0 mg/kg/injection, schedule: Q04DX002 (ip), vehicle: saline with Tween-80
[5] = endpoint: mean survival time, dose: 200.0 mg/kg/injection, schedule: Q04DX002 (ip), vehicle: saline with Tween-80
[6] = endpoint: mean survival time, dose: 75.0 mg/kg/injection, schedule: Q01DX001 (ip), vehicle: saline
[7] = endpoint: mean survival time, dose: 100.0 mg/kg/injection, schedule: Q01DX009 (ip), vehicle: saline with Tween-80
[8] = endpoint: mean survival time, dose: 200.0 mg/kg/injection, schedule: Q01DX009 (ip), vehicle: saline with Tween-80
[9] = endpoint: mean survival time, dose: 25.0 mg/kg/injection, schedule: Q04DX002 (ip), vehicle: saline with Tween-80
[10] = endpoint: mean survival time, dose: 50.0 mg/kg/injection, schedule: Q04DX002 (ip), vehicle: saline with Tween-80
[11] = endpoint: mean survival time, dose: 100.0 mg/kg/injection, schedule: Q01DX001 (ip), vehicle: saline
[12] = endpoint: mean survival time, dose: 200.0 mg/kg/injection, schedule: Q01DX001 (ip), vehicle: saline
[13] = endpoint: mean survival time, dose: 400.0 mg/kg/injection, schedule: Q01DX001 (ip), vehicle: saline
[14] = endpoint: mean survival time, dose: 50.0 mg/kg/injection, schedule: Q01DX009 (ip), vehicle: Klucel (hydroxypropylcellulose) (HPC)
[15] = endpoint: mean survival time, dose: 100.0 mg/kg/injection, schedule: Q01DX009 (ip), vehicle: Klucel (hydroxypropylcellulose) (HPC)
[16] = endpoint: mean survival time, dose: 100.0 mg/kg/injection, schedule: Q04DX003 (ip), vehicle: saline with Tween-80
[17] = endpoint: mean survival time, dose: 200.0 mg/kg/injection, schedule: Q04DX003 (ip), vehicle: saline with Tween-80
[18] = endpoint: mean survival time, dose: 400.0 mg/kg/injection, schedule: Q04DX003 (ip), vehicle: saline with Tween-80

Measured: T/C

CC(=O)c1cc(C)c[n+](C2OC(COC(=O)c3ccccc3)C(OC(=O)c3ccccc3)C2O)c1 (stereo not given)
inactive: endpoint: mean survival time, dose: 3.13 mg/kg/injection, schedule: Q01DX005 (ip), vehicle: water 100 % of control | endpoint: mean survival time, dose: 6.25 mg/kg/injection, schedule: Q01DX005 (ip), vehicle: water 98 % of control | endpoint: mean survival time, dose: 12.5 mg/kg/injection, schedule: Q01DX005 (ip), vehicle: water 106 % of control | [1] 93 % of control | [2] 100 % of control and 101 % of control | [3] 93 % of control

COc1ccc(NC(=O)Oc2cccc(C)c2)cc1
inactive: [4] 90 % of control | [5] 97 % of control | endpoint: mean survival time, dose: 400.0 mg/kg/injection, schedule: Q04DX002 (ip), vehicle: saline with Tween-80 93 % of control

C[n+]1cc(Br)c2ccccc2c1
inactive: [6] 100 % of control | endpoint: mean survival time, dose: 150.0 mg/kg/injection, schedule: Q01DX001 (ip), vehicle: saline 103 % of control

N#C/C(=C\c1c(Cl)cccc1Cl)c1ccc([N+](=O)[O-])cc1
inactive: [7] 97 % of control | [8] 88 % of control | endpoint: mean survival time, dose: 400.0 mg/kg/injection, schedule: Q01DX009 (ip), vehicle: saline with Tween-80 91 % of control

CCCCCCCCCCCCCCCCCc1nnc(-c2ccccc2O)o1
inactive: [9] 100 % of control | [10] 103 % of control | [4] 108 % of control | [5] 112 % of control

Cc1ccc(S(=O)(=O)OCCc2ccccc2)cc1
inactive: endpoint: mean survival time, dose: 100.0 mg/kg/injection, schedule: Q01DX001 (ip), vehicle: saline with Tween-80 97 % of control | endpoint: mean survival time, dose: 200.0 mg/kg/injection, schedule: Q01DX001 (ip), vehicle: saline with Tween-80 97 % of control | endpoint: mean survival time, dose: 400.0 mg/kg/injection, schedule: Q01DX001 (ip), vehicle: saline with Tween-80 94 % of control

O=C(O)C(=O)Cc1ccc2c(c1)OCO2
inactive: [11] 98 % of control | [12] 104 % of control | [13] 98 % of control

Cc1ccc(S(=O)(=O)CCCCl)cc1
inactive: [14] 111 % of control | [15] 95 % of control | endpoint: mean survival time, dose: 200.0 mg/kg/injection, schedule: Q01DX009 (ip), vehicle: Klucel (hydroxypropylcellulose) (HPC) 100 % of control

O=C1CC=C2C3CC4N(CCC45c4cc(O)c(O)cc4N1C25)C/C3=C\CBr (stereo not given)
inactive: [6] 115 % of control

Nc1nc(N)c2nc(CSc3ccc(C(=O)NC(CCC(=O)O)C(=O)O)cc3)cnc2n1 (stereo not given)
inactive: endpoint: mean survival time, dose: 1.5 mg/kg/injection, schedule: Q01DX009 (ip), vehicle: distilled water + Tween-80 96 % of control | endpoint: mean survival time, dose: 3.0 mg/kg/injection, schedule: Q01DX009 (ip), vehicle: distilled water + Tween-80 86 % of control | endpoint: mean survival time, dose: 6.0 mg/kg/injection, schedule: Q01DX009 (ip), vehicle: distilled water + Tween-80 100 % of control and 101 % of control | endpoint: mean survival time, dose: 12.0 mg/kg/injection, schedule: Q01DX009 (ip), vehicle: distilled water + Tween-80 115 % of control and 110 % of control | endpoint: mean survival time, dose: 24.0 mg/kg/injection, schedule: Q01DX009 (ip), vehicle: distilled water + Tween-80 117 % of control and 120 % of control

COP(=O)(OC)OCC1OC(n2ccc(N)nc2=O)C(O)C1O (stereo not given)
inactive: endpoint: median survival time, dose: 12.5 mg/kg/injection, schedule: Q01DX005 (ip), vehicle: saline 111 % of control | endpoint: median survival time, dose: 25.0 mg/kg/injection, schedule: Q01DX005 (ip), vehicle: saline 104 % of control | endpoint: median survival time, dose: 50.0 mg/kg/injection, schedule: Q01DX005 (ip), vehicle: saline 110 % of control | endpoint: median survival time, dose: 100.0 mg/kg/injection, schedule: Q01DX005 (ip), vehicle: saline 115 % of control and 108 % of control | endpoint: median survival time, dose: 200.0 mg/kg/injection, schedule: Q01DX005 (ip), vehicle: saline 113 % of control

COC(=O)C(N)CSCSCc1ccccc1 (stereo not given)
inactive: [1] 101 % of control | [2] 93 % of control | [3] 93 % of control

N#CCCOS(=O)(=O)c1cccc([N+](=O)[O-])c1
inactive: [16] 98 % of control | [17] 101 % of control | [18] 93 % of control

C=C1CCCCC1C(C(=O)O)(c1ccccc1)c1ccccc1 (stereo not given)
inactive: [16] 102 % of control | [17] 102 % of control | [18] 100 % of control

Cc1ccc(C2(c3ccccc3)c3ccccc3C(=O)N2c2ccccc2)cc1 (stereo not given)
inactive: [16] 97 % of control | [17] 101 % of control | [18] 103 % of control

CCCCCCC[CH2][Sn]1([CH2]CCCCCCC)[O]OC(c2ccccc2)[O]1 (stereo not given)
inactive: [10] 92 % of control

Cc1ccc([N+](=O)[O-])c(N)n1
inactive: [7] 96 % of control | [16] 98 % of control | [8] 86 % of control | [17] 98 % of control | [18] 100 % of control

CCC1(O)CC2CN(CCc3c([nH]c4ccccc34)C(C(=O)OC)(c3cc4c(cc3OC)N(C)C3C(O)(C(=O)NCCO)C(O)C5(CC)C=CCN6CCC43C65)C2)C1 (stereo not given)
inactive: endpoint: mean survival time, dose: 0.36 mg/kg/injection, schedule: Q01DX009 (ip), vehicle: water 110 % of control | endpoint: mean survival time, dose: 0.52 mg/kg/injection, schedule: Q04DX003 (ip), vehicle: water 108 % of control | endpoint: mean survival time, dose: 0.86 mg/kg/injection, schedule: Q04DX003 (ip), vehicle: water 119 % of control | endpoint: mean survival time, dose: 1.44 mg/kg/injection, schedule: Q04DX003 (ip), vehicle: water 118 % of control | endpoint: mean survival time, dose: 2.4 mg/kg/injection, schedule: Q04DX003 (ip), vehicle: water 113 % of control

O=C(O)c1ccccc1SCCO
inactive: endpoint: mean survival time, dose: 100.0 mg/kg/injection, schedule: Q01DX001 (ip), vehicle: Klucel (hydroxypropylcellulose) (HPC) 93 % of control | endpoint: mean survival time, dose: 200.0 mg/kg/injection, schedule: Q01DX001 (ip), vehicle: Klucel (hydroxypropylcellulose) (HPC) 102 % of control | endpoint: mean survival time, dose: 400.0 mg/kg/injection, schedule: Q01DX001 (ip), vehicle: Klucel (hydroxypropylcellulose) (HPC) 104 % of control

Nc1nc(N)nc(Nc2ccc(Sc3ccc(Nc4nc(N)nc(N)n4)cc3)cc2)n1
inactive: endpoint: mean survival time, dose: 180.0 mg/kg/injection, schedule: Q01DX Z (ip), vehicle: saline 103 % of control

O=[N+]([O-])c1ccccc1-c1nn(-c2ccccc2)c2ccccc12
inactive: endpoint: mean survival time, dose: 12.5 mg/kg/injection, schedule: Q04DX002 (ip), vehicle: saline with Tween-80 102 % of control | [9] 105 % of control | [10] 90 % of control

CC(C)CC(NC(c1ccccc1)(c1ccccc1)c1ccccc1)C(=O)O (stereo not given)
inactive: [11] 102 % of control | [12] 95 % of control | [13] 102 % of control

CCN(CC)CCNc1nc(-c2cc(C(F)(F)F)cc(C(F)(F)F)c2)nc(C(Cl)(Cl)Cl)n1
inactive: endpoint: mean survival time, dose: 100.0 mg/kg/injection, schedule: Q01DX005 (ip), vehicle: saline 100 % of control | endpoint: mean survival time, dose: 100.0 mg/kg/injection, schedule: Q01DX009 (ip), vehicle: saline 93 % of control | endpoint: mean survival time, dose: 200.0 mg/kg/injection, schedule: Q01DX005 (ip), vehicle: saline 103 % of control | endpoint: mean survival time, dose: 200.0 mg/kg/injection, schedule: Q01DX009 (ip), vehicle: saline 93 % of control | endpoint: mean survival time, dose: 400.0 mg/kg/injection, schedule: Q01DX005 (ip), vehicle: saline 95 % of control | endpoint: mean survival time, dose: 400.0 mg/kg/injection, schedule: Q01DX009 (ip), vehicle: saline 93 % of control

O=C1OC(=O)c2ccccc21
inactive: endpoint: mean survival time, dose: 25.0 mg/kg/injection, schedule: Q01DX009 (ip), vehicle: Klucel (hydroxypropylcellulose) (HPC) 91 % of control | [14] 95 % of control | [15] 95 % of control
